Experiment [1] deals with T1, AHR (Homo sapiens, UniProt P35869).
T1 construct: U87 MG glioblastoma cells (ATCC #HTB-14) endogenously expressing AHR; endogenous in cells; host or cells: U87 MG glioblastoma cells (ATCC #HTB-14)
T1 sequence (P35869 11-848): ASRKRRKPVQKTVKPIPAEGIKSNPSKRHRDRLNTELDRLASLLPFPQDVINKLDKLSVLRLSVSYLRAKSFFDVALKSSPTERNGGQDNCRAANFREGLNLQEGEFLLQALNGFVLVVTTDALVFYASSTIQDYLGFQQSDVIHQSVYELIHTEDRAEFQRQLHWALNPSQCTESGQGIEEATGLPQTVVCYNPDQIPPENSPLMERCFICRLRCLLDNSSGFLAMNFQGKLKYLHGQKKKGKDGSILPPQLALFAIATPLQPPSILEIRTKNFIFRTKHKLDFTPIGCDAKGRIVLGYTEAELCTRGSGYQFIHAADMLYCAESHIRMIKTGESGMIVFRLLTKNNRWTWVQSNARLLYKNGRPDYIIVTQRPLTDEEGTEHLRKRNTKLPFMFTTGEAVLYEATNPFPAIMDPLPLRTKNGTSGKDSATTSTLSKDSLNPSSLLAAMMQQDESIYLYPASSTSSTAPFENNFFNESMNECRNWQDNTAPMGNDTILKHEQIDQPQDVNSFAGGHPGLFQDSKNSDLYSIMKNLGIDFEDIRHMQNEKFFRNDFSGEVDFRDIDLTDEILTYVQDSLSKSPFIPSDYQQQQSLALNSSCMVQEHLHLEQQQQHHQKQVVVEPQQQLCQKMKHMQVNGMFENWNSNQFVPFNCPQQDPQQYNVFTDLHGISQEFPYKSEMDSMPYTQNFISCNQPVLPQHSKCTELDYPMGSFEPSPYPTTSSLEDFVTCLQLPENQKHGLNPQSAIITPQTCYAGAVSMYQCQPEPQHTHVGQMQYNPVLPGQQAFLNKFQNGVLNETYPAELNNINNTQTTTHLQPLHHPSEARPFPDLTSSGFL
Kind of experiment: In vitro assay 1: antagonism in human cell line (AHR transactivation, firefly luciferase reporter, kynurenic acid prestimulated). Type of experiment: cell-based. As to conditions: AHR Antagonism Human IC50 [M]. Summed up:
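U87 MG + DRE-firefly/constitutive-Renilla stable reporters; kynurenic acid prestim; dual-luc read; Renilla = tox; normalized vs pos/neg controls (pos: 150 μM KYNA + 5 μM staurosporine).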
For orientation: In a reporter assay the amount or activity of a reporter protein is the signal.

In experiment [2] the target is T2, AHR (Mus musculus, UniProt P30561).
T2 sequence (P30561 1-848 P471L/N533S/M589L): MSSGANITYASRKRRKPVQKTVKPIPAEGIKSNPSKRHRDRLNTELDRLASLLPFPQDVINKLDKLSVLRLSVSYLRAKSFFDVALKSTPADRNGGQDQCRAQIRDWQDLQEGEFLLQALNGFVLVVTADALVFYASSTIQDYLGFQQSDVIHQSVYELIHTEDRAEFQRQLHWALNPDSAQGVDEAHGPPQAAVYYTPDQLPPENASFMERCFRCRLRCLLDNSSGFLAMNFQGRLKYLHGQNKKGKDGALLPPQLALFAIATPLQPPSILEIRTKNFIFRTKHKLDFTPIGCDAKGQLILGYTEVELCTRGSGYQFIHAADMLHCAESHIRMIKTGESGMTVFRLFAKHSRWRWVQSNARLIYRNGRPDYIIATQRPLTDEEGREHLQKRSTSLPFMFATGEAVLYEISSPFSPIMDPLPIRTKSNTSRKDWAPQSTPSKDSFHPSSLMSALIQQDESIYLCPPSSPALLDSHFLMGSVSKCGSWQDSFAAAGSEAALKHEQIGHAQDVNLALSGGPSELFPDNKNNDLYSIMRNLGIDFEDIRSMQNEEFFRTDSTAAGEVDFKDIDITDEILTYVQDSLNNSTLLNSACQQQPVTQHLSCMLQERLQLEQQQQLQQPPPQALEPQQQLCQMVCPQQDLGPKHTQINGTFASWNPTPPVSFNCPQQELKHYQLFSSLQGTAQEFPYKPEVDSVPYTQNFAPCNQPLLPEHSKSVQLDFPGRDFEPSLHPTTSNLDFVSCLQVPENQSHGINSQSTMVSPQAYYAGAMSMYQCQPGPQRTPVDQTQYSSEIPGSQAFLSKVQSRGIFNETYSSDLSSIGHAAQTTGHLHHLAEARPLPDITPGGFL
Kind of experiment: In vitro assay 3: antagonism in mouse cell line (AHR transactivation, firefly luciferase reporter, kynurenic acid prestimulated). Type of experiment: cell-based. In short, it runs like this: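 Cells were first stimulated with kynurenic acid, then exposed to test compound, after which firefly luciferase from a DRE-containing AHR reporter was read out. Signal was scaled between positive and negative controls. Cells not given kynurenic acid provided the inhibition reference.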

Setting [3] is: mouse Hepa 1c1c7 cells, 200 μM kynurenic acid, 20 hours, read-out: AHR Antagonism Mouse IC50.
Where [4] appears, read: read-out: AHR Antagonism Mouse IC50, mouse Hepa 1c1c7 cells, 200 μM kynurenic acid, 20 hours.

Read-outs that look alike come from different tables or passages of the source.

For 23 compounds, IC50 results are on record in patent US20230113037A1 (Bayer Aktiengesellschaft, priority 2019, published 2023).

In general, IC50 refers to the concentration that gives 50% inhibition. In the case of `Cn1cc(-c2nc3c4ccccc4nc(NC4CCCNC4=O)n3n2)cn1` (stereo not shown) [Example 13, 3-{[2-(1-methyl-1H-pyrazol-4-yl)[1,2,4]triazolo[1,5-c]quinazolin-5-yl]amino}piperidin-2-one], the values for the IC50 against AHR [1] and at AHR [2] (setting [3]) were 1.21e-06 M and 7260 nM, respectively.
On the same counts, the results for `Cn1cc(-c2nc3c4ccccc4nc(N[C@H]4CCCCNC4=O)n3n2)cn1` [Example 14, (3S)-3-{[2-(1-methyl-1H-pyrazol-4-yl)[1,2,4]triazolo[1,5-c]quinazolin-5-yl]amino}azepan-2-one] are 2.14e-07 M and 234 nM.
On the same counts, the results for `Cn1cc(-c2nc3c4ccccc4nc(NC4CCNC4=O)n3n2)cn1` (stereo not shown) [Example 15, 3-{[2-(1-methyl-1H-pyrazol-4-yl)[1,2,4]triazolo[1,5-c]quinazolin-5-yl]amino}pyrrolidin-2-one] are 1.78e-05 M and 7820 nM.
For the compound `CC[C@@H](Nc1nc2ccccc2c2nc(-c3cnn(C)c3)nn12)C(N)=O` [Example 17, (2R)-2-{[2-(1-methyl-1H-pyrazol-4-yl)[1,2,4]triazolo[1,5-c]quinazolin-5-yl]amino}butanamide], the IC50 against AHR [1] was determined as 7.44e-08 M; on AHR [2] (setting [3]), 27.6 nM.
On the same counts, the results for `COc1ccc(-c2nc3c4ccccc4nc(N[C@@H]4CCCCNC4=O)n3n2)cc1` [Example 29, (3R)-3-{[2-(4-methoxyphenyl)[1,2,4]triazolo[1,5-c]quinazolin-5-yl]amino}azepan-2-one] are 4.03e-10 M and 0.524 nM.
For `COc1ccc(-c2nc3c4ccccc4nc(N[C@@H]4CCNC4=O)n3n2)cc1` [Example 39, (3R)-3-{[2-(4-methoxyphenyl)[1,2,4]triazolo[1,5-c]quinazolin-5-yl]amino}pyrrolidin-2-one], in that order: 1.59e-08 M and 53.6 nM.
For `COc1ccc(-c2nc3c4ccccc4nc(N[C@H]4CCNC4=O)n3n2)cc1` [Example 40, (3S)-3-{[2-(4-methoxyphenyl)[1,2,4]triazolo[1,5-c]quinazolin-5-yl]amino}pyrrolidin-2-one], in that order: 2.08e-08 M and 380 nM.
For the compound `Cc1ccccc1-c1nc2c3ccccc3nc(N[C@H]3CCCCNC3=O)n2n1` [Example 41, (3S)-3-{[2-(2-methylphenyl)[1,2,4]triazolo[1,5-c]quinazolin-5-yl]amino}azepan-2-one], the IC50 against AHR [1] was 2.12e-08 M; at AHR [2] (setting [4]), 1.7 nM.
Take `Cc1ccccc1-c1nc2c3ccccc3nc(N[C@@H]3CCCCNC3=O)n2n1` [Example 42, (3R)-3-{[2-(2-methylphenyl)[1,2,4]triazolo[1,5-c]quinazolin-5-yl]amino}azepan-2-one]: the figures for the IC50 on AHR [1] and at AHR [2] (setting [4]) were 3.03e-10 M and 0.158 nM, respectively.
In the case of `Cc1ccccc1-c1nc2c3ccccc3nc(NC3CCNC3=O)n2n1` (stereo not shown) [Example 43, 3-{[2-(2-methylphenyl)[1,2,4]triazolo[1,5-c]quinazolin-5-yl]amino}pyrrolidin-2-one], the IC50 was found to be 8.65e-09 M against AHR [1] and 19.8 nM at AHR [2] (setting [3]).
As to `Cc1ccccc1-c1nc2c3ccccc3nc(NC3CCCNC3=O)n2n1` (stereo not shown) [Example 44, 3-{[2-(2-methylphenyl)[1,2,4]triazolo[1,5-c]quinazolin-5-yl]amino}piperidin-2-one], the IC50 on AHR [1] turned out to be 1.57e-08 M; on AHR [2] (setting [3]) it was 16.9 nM.
For `Cc1ccccc1-c1nc2c3ccccc3nc(NC3CNCCNC3=O)n2n1` (stereo not shown) [Example 45, 6-{[2-(2-methylphenyl)[1,2,4]triazolo[1,5-c]quinazolin-5-yl]amino}-1,4-diazepan-5-one], in that order: 1.19e-08 M and 14.5 nM.
For `O=C1NCCCC[C@H]1Nc1nc2ccccc2c2nc(-c3ccccc3C(F)(F)F)nn12` [Example 52, (3R)-3-({2-[2-(trifluoromethyl)phenyl][1,2,4]triazolo[1,5-c]quinazolin-5-yl}amino)azepan-2-one], in that order: 1.3e-08 M and 3.22 nM.
In the case of `Cc1cccc(-c2nc3c4ccccc4nc(N[C@@H]4CCCCNC4=O)n3n2)c1` [Example 53, (3R)-3-{[2-(3-methylphenyl)[1,2,4]triazolo[1,5-c]quinazolin-5-yl]amino}azepan-2-one], the IC50 came to 1.16e-08 M against AHR [1] and 5.28 nM on AHR [2] (setting [3]).
On the same counts, the results for `O=C1NCCCC[C@H]1Nc1nc2ccccc2c2nc(-c3cccc(C(F)(F)F)c3)nn12` [Example 54, (3R)-3-({2-[3-(trifluoromethyl)phenyl][1,2,4]triazolo[1,5-c]quinazolin-5-yl}amino)azepan-2-one] are 2.08e-08 M and 3.2 nM.
For `O=C1NCCCC[C@H]1Nc1nc2ccccc2c2nc(-c3ccccc3F)nn12` [Example 55, (3R)-3-{[2-(2-fluorophenyl)[1,2,4]triazolo[1,5-c]quinazolin-5-yl]amino}azepan-2-one], in that order: 2.01e-09 M and 15.7 nM.
For `COc1ccccc1-c1nc2c3ccccc3nc(N[C@H]3CCCCNC3=O)n2n1` [Example 60, (3S)-3-{[2-(2-methoxyphenyl)[1,2,4]triazolo[1,5-c]quinazolin-5-yl]amino}azepan-2-one], in that order: greater than 2e-05 M and 131 nM.
In the case of `COc1ccccc1-c1nc2c3ccccc3nc(N[C@@H]3CCCCNC3=O)n2n1` [Example 61, (3R)-3-{[2-(2-methoxyphenyl)[1,2,4]triazolo[1,5-c]quinazolin-5-yl]amino}azepan-2-one], the IC50 against AHR [1] worked out at 3.63e-08 M; on AHR [2] (setting [3]) it was 664 nM.
On the same counts, the results for `O=C1NCCCC[C@H]1Nc1nc2ccccc2c2nc(-c3cc[nH]n3)nn12` [Example 62, (3R)-3-{[2-(1H-pyrazol-3-yl)[1,2,4]triazolo[1,5-c]quinazolin-5-yl]amino}azepan-2-one] are 1.11e-07 M and 154 nM.
On the same counts, the results for `Cn1ccc(-c2nc3c4ccccc4nc(N[C@@H]4CCCCNC4=O)n3n2)n1` [Example 63, (3R)-3-{[2-(1-methyl-1H-pyrazol-3-yl)[1,2,4]triazolo[1,5-c]quinazolin-5-yl]amino}azepan-2-one] are 2.87e-08 M and 41.9 nM.
On the same counts, the results for `Cc1cc(-c2nc3c4ccccc4nc(N[C@@H]4CCCCNC4=O)n3n2)n[nH]1` [Example 64, (3R)-3-{[2-(5-methyl-1H-pyrazol-3-yl)[1,2,4]triazolo[1,5-c]quinazolin-5-yl]amino}azepan-2-one] are 6.33e-08 M and 85 nM.
`Cn1nccc1-c1nc2c3ccccc3nc(N[C@@H]3CCCCNC3=O)n2n1` [Example 65, (3R)-3-{[2-(1-methyl-1H-pyrazol-5-yl)[1,2,4]triazolo[1,5-c]quinazolin-5-yl]amino}azepan-2-one]: the IC50 was determined as 6.42e-09 M at AHR [1] and 3.17 nM at AHR [2] (setting [3]).
On the same counts, the results for `CCn1cc(-c2nc3c4ccccc4nc(N[C@@H]4CCCCNC4=O)n3n2)c(C)n1` [Example 66, (3R)-3-{[2-(1-ethyl-3-methyl-1H-pyrazol-4-yl)[1,2,4]triazolo[1,5-c]quinazolin-5-yl]amino}azepan-2-one] are 1.36e-09 M and 1.01 nM.
